Experimental data: patent US20030236218A1, “Aryl phosphate derivatives of d4T with selective activity against adenovirus and HIV” (priority 2002, published 2003)
Several values for one entry are separate records, joined by “and”; a condition that tells them apart may be missing. Equal entries are not always repeated. Where two headings read alike, the source gives them in different places.

Tests used:
[1] = Pharmacokinetic studies in mice, oral administration; assay type: in vivo, Balb/c mice; conditions: for AUC / Cmax / Tmax / t1/2: plasma analyte = label, after oral 100 mg/kg compound 113
Method: Female Balb/c mice (6-8 weeks old) from Taconic (Germantown, N.Y.) were housed in a controlled environment (12-hours of light/12-hours of dark, 22±1° C., 60±10% relative humidity), which is fully accredited by the USDA. All rodents were housed in microisolator cages (Lab Products, Inc., NJ) containing autoclaved bedding. The mice were allowed free access to autoclaved pellet food and tap water throughout the study. All animal care procedures conformed to the Guide for the Care and Use of Laboratory Animals (National Research Council, National Academy Press, Washington D.C. 1996).
Sampling time points were 0, 2, 5, 10, 15, 30, 45, 60, 120, 240 and 360 minutes after the gavage.
(§7) All collected blood samples were heparinized and centrifuged at 7000×g for 5 minutes to separate the plasma fraction from the whole blood. The plasma samples were then processed immediately using the extraction procedure described above.
(§8) Pharmacokinetic modeling and parameter calculations were carried out using the WinNonlin Professional Version 3.0 (Pharsight, Inc., Mountain, Calif.) pharmacokinetics software (Chen et al., Pharm. Res., 16, 1003 (1999); Chen et al., Pharm. Res., 16, 117 (1999); Chen et al., J. Clin. Pharmacol., 39, 1248 (1999); Uckun et al., Clin. Cancer Res., 5, 2954 (1999); and Uckun et al., J. Pharmacol. Exp. Ther., 291, 1301 (1999)). An appropriate model was chosen on the basis of the lowest sum of weighted squared residuals, the lowest Schwartz Criterion (SC), the lowest Akaike's Information Criterion (AIC) value, the lowest standard errors of the fitted parameters, and the dispersion of the residuals. The elimination half-life was estimated by linear regression analysis of the terminal phase of the plasma concentration-time profile. The area under the concentration-time curve (AUC) was calculated according to the linear trapezoidal rule between the first sampling time (0 hours) and the last sampling time plus C/k, where C is the concentration of the last sampling and k is the elimination rate constant. The systemic clearance (CL) was determined by dividing the dose by the AUC. The metabolic clearance of the parent drug, the formation clearance of the metabolite, the clearance elimination of the metabolite, and the distribution clearance of the metabolite were estimated by simultaneous fitting of the concentration of parent drug and metabolites as a function of time curve to pharmacokinetic models (see FIGS. 7A & 8A) specified as a system of differential equations (Gabrielsson & Weiner, Phamacokinetic/Phamacodynamic Data Analysis: Concepts and Applications, Swedish Pharmaceutical Press (1997)).

[2] = Stability in simulated intestinal fluid; assay type: in vitro ADME; conditions: 100 μM, 37° C.
Method: The spiked fluids were then placed in a 37° C. water bath. At a predetermined time, 100 μI aliquots of the spiked gastric or intestinal fluid were extracted by adding 400 μl of acetone as discussed above.

Stability in plasma = assay type: in vitro ADME; conditions: spiked plasma; 250 μM compound 113, 100 μM Ala-d4T-MP (followed for 1 day)
Method: Plasma samples (200 μL) were mixed 1:4 with acetone (800 μL) and vortexed for at least 30 seconds. Following centrifugation, the supernatant was transferred into a clean tube and was dried under nitrogen. A 50 μL solution of 50% methanol in 200 mM HCl was used to reconstitute the extraction residue, and 40 μL was injected into the HPLC.
(§1) The whole blood samples were placed in a 37° C. water bath, while plasma samples were stored at −20° C. At a predetermined time, an aliquot (100 μl) of spiked whole blood or plasma was extracted by adding 400 μl of acetone to induce precipitation of proteins, as described above.

Stability in whole blood = assay type: in vitro ADME; conditions: spiked whole blood 37° C.; 250 μM compound 113, 100 μM Ala-d4T-MP (followed for 1 day)
Method: as §1

[3] = Pharmacokinetic studies in mice, intravenous administration; assay type: in vivo, Balb/c mice; conditions: for AUC / CL / Cmax / Vss / t1/2 / Tmax: plasma analyte = label
Method: Female Balb/c mice (6-8 weeks old) from Taconic (Germantown, N.Y.) were housed in a controlled environment (12-hours of light/12-hours of dark, 22±1° C., 60±10% relative humidity), which is fully accredited by the USDA. All rodents were housed in microisolator cages (Lab Products, Inc., NJ) containing autoclaved bedding. The mice were allowed free access to autoclaved pellet food and tap water throughout the study.
Blood samples (˜500 μL) were obtained from the ocular venous plexus by retro-orbital venipuncture at 0, 2, 5, 10, 15, 30, 45, 60, 120, 240 and 360 minutes after intravenous injection.
as §7, §8

[4] = tested on: adenovirus strain Type 5, strain adenoid 75; assay: Adenovirus plaque formation assay in skin fibroblast cell line SF; assay type: cell-based, human adenovirus
Excerpt: (§2) Virus stocks. The HIV-1 strain used in this study was HTLV-IIIB (Uckun et al., 1998 Antimicro. Agents and Chemother., 42:383-388). The non-HIV viruses included in the present study were the gancyclovir-sensitive cytomegalovirus (CMV) strain AD169 (ATCC VR-538); acyclovir-sensitive herpes simplex virus (HSV) Type I strain HF (ATCC VR-260); acyclovir-sensitive HSV Type II strain G (ATCC VR-734); adenovirus strain Type 5, strain adenoid 75 (ATCC VR-5); enterovirus strain, ECHO 30, strain Bastianni (ATCC VR-322); and respiratory syncytial virus (RSV), strain Long (ATCC VR-26).
(§3) Plaque formation assays. Plaque assays were used to examine the activity of the compounds against non-HIV viruses. The skin fibroblast cell line SF (ATCC CRL-2097) was used as a target for AD169, Adenovirus Type 5. […] cell line (ATCC CCL-81) was used as a target for HSV HF and G. The HEP-2 cell line (ATCC CCL-23) was used as a target for the RSV strain Long. These cell lines were cultured at 1×10^5 cells/well in 24-well (all but ECHO 30-infected SF) or 6-well (ECHO 30-infected SF) tissue culture plates with 0.9% methylcellulose or 0.4% SeaPlaque agarose semisolid support. Minimum Essential Medium (MEM) with Earle's salts (Gibco), L-glutamine, non-essential amino acids, 2% heat-inactivated fetal bovine serum, 1% penicillin/streptomycin, and 0.05% gentamicin served as the culture medium. The incubation times were 3 days for HF, G, ECHO 30, and Long; and 7 days for AD169 and Adenovirus Type 5. Plaque counting was performed with a 20X dissecting microscope for AD169, Type 5, ECHO 30, and RSV Long, and with a light box for HF and G. The fixative agent was crystal violet for all viruses, except for the CMV strain AD169 for which methylene blue was used. Percent inhibition of plaque formation was calculated by comparing the plaque numbers from the test substance-treated infected cells with the plaque numbers from untreated infected cells (i.e., virus controls). The IC50 values were determined using the Statview statistics program (SAS Institute, Inc., Cary, N.C.).
Statistical analysis. Each drug was tested at 6-7 different concentrations ranging from 0.0001 μM to 100 μM. Each assay was set up in triplicate wells and repeated 1-3 times. An IC50 value was calculated from each set of triplicate wells using nonlinear regression modeling of the exponential form of the linearized equation (Statview, SAS Institute, Inc., Cary, N.C.). […] The IC50 values obtained were correlated to the log transformed hydrolysis rate constants by fitting a linear model (JMP Software, SAS Institute Inc., Cary, N.C.). P-values less than 0.05 were deemed significant.
(§4) The skin fibroblast cell line SF (ATCC CRL-2097) was used as a target for AD169, Adenovirus Type 5, and ECHO 30; the VERO cell line (ATCC CCL-81) was used as a target for HF and G; and the HEP-2 cell line (ATCC CCL-23) was used as target for the RSV strain Long. Results are expressed as the average IC50 values in μM. Stavudine (STV) was included as a control.

[5] = tested on: herpes simplex virus (HSV) Type I strain HF; assay: HSV-1 plaque formation assay in VERO cells; assay type: cell-based; conditions: Human alphaherpesvirus 1, HSV-1, Strain HF
Excerpt: as §2
(§5) Plaque formation assays. Plaque assays were used to examine the activity of the compounds against non-HIV viruses. The skin fibroblast cell line SF (ATCC CRL-2097) was used as a target for AD169, Adenovirus Type 5. […] cell line (ATCC CCL-81) was used as a target for HSV HF and G. The HEP-2 cell line (ATCC CCL-23) was used as a target for the RSV strain Long. These cell lines were cultured at 1×10^5 cells/well in 24-well (all but ECHO 30-infected SF) or 6-well (ECHO 30-infected SF) tissue culture plates with 0.9% methylcellulose or 0.4% SeaPlaque agarose semisolid support. […] Percent inhibition of plaque formation was calculated by comparing the plaque numbers from the test substance-treated infected cells with the plaque numbers from untreated infected cells (i.e., virus controls). The IC50 values were determined using the Statview statistics program (SAS Institute, Inc., Cary, N.C.).
(§6) Statistical analysis. […] An IC50 value was calculated from each set of triplicate wells using nonlinear regression modeling of the exponential form of the linearized equation (Statview, SAS Institute, Inc., Cary, N.C.). […]
as §4, with “Stavudine (STV) was included as a control.” left out

[6] = Octanol/water partition coefficient, shake flask method; assay type: physicochemical; conditions: 4 hours at room temperature, read-out: Oct/Water (log P)
Method: HPLC purification was achieved using a reverse-phase Lichrospher column (250×4 mm, Hewlett-Packard, RP-18, Cat. #79925) and an isocratic flow (1 ml/minute) consisting of water (70%) and acetonitrile (30%). Melting points were determined using a Melt John's apparatus and are uncorrected. Column chromatography was performed using silica gel obtained from Baker Company. The octanol/water partition coefficient was determined by the shake flask method. The phosphoramidate analogs were added to 2 ml of water and 2 ml of octanol in a glass vial. The mixture was shaken for 4 hours at room temperature. The two phases were carefully separated and filtered through a Millipore filter and analyzed by HPLC. The partition coefficient was calculated using the ratio of the area under the curve for octanol and water, respectively.

skin fibroblasts = assay: Cytotoxicity in skin fibroblasts (plaque assay); assay type: cell-based; conditions: ADV plaque formation assay
Method: as §3, with “Plaque counting was performed with a 20X dissecting microscope for AD169, Type 5, ECHO 30, and RSV Long, and with a light box for HF and G. The fixative agent was crystal violet for all viruses, except for the CMV strain AD169 for which methylene blue was used.” left out

Solubility = assay type: physicochemical; conditions: read-out: Solubility
[7] = tested on: respiratory syncytial virus (RSV), strain Long; assay: RSV plaque formation assay in HEP-2 cells; assay type: cell-based; conditions: human respiratory syncytial virus, HEp-2
Excerpt: as §2, §5, §6
as §4, with “Stavudine (STV) was included as a control.” left out

[8] = Hydrolysis rate in alkali conditions; assay type: physicochemical
Method: Statistical analysis. Each drug was tested at 6-7 different concentrations ranging from 0.0001 μM to 100 μM. Each assay was set up in triplicate wells and repeated 1-3 times. An IC50 value was calculated from each set of triplicate wells using nonlinear regression modeling of the exponential form of the linearized equation (Statview, SAS Institute, Inc., Cary, N.C.). Hydrolysis rates were determined by fitting single exponential decay equations to the disappearance of the compound in alkali conditions (all R^2 values greater than 0.85). The IC50 values obtained were correlated to the log transformed hydrolysis rate constants by fitting a linear model (JMP Software, SAS Institute Inc., Cary, N.C.). P-values less than 0.05 were deemed significant.

HIV-1 strain HTLV-IIIB = assay: In vitro anti-HIV-1 activity, p24 antigen assay in PBMNC; assay type: cell-based; conditions: Human immunodeficiency virus 1, HIV-1, HTLV-IIIB, day 7
Excerpt: as §2
In vitro assays of anti-HIV-1 activity. Normal human peripheral blood mononuclear cells (PBMNC) from HIV-negative donors were cultured 72 hours in RPMI 1640 supplemented with 20% (v/v) heat-inactivated fetal bovine serum (FBS), 3% interleukin-2, 2 mM L-glutamine, 25 mM HEPES, 2 g/L NaHCO3, 50 Tg/mL gentamicin, and 4 Tg/mL phytohemagglutinin prior to exposure to HIV-1 at a multiplicity of infection (MOI) of 0.1 during a 1 hour adsorption period at 37° C. in a humidified 5% CO2 atmosphere. Subsequently, cells were cultured in 96-well microtiter plates (100 TL, 2×10^6 cells/mL) in the presence of various concentrations of compounds 113 or 609. Aliquots of culture supernatants were removed from the wells on the seventh day after infection for p24 antigen assays, as previously described. […] Percent viral inhibition was calculated by comparing the p24 values from untreated infected cells (i.e., virus controls).
Statistical analysis. […] An IC50 value was calculated from each set of triplicate wells using nonlinear regression modeling of the exponential form of the linearized equation (Statview, SAS Institute, Inc., Cary, N.C.). Hydrolysis rates were determined by fitting single exponential decay equations to the disappearance of the compound in alkali conditions (all R^2 values greater than 0.85). […]

HSV Type II strain G = assay: HSV-2 plaque formation assay in VERO cells; assay type: cell-based, herpes simplex virus Type II; conditions: Human alphaherpesvirus 2, HSV-2, Strain G
Excerpt: as §2, §5, §6
as §4, with “Stavudine (STV) was included as a control.” left out

[9] = tested on: enterovirus strain, ECHO 30, strain Bastianni; assay: Enterovirus plaque formation assay in SF cells; assay type: cell-based
Excerpt: as §2, §5, §6
as §4, with “Stavudine (STV) was included as a control.” left out

[10] = tested on: cytomegalovirus (CMV) strain AD169; assay: CMV plaque formation assay in SF cells; assay type: cell-based; conditions: Human betaherpesvirus 5
Excerpt: as §2, §5, §6
as §4, with “Stavudine (STV) was included as a control.” left out

[11] = estimate from composite curve of pooled data
[12] = after i.v. Ala-d4T-MP, model fit, C.V. of modeling in parentheses
[13] = after i.v. compound 113, model fit, C.V. of modeling in parentheses
[14] = after i.v. 75 mg/kg Ala-d4T-MP, estimate from composite curve of pooled data
[15] = after i.v. 75 mg/kg Ala-d4T-MP, mean ± S.E.M
[16] = after i.v. 100 mg/kg compound 113, estimate from composite curve of pooled data
[17] = after i.v. 100 mg/kg compound 113, mean ± S.E.M

Cc1cn([C@H]2C=C[C@@H](COP(=O)(O)NC(C)C(=O)O)O2)c(=O)[nH]c1=O (stereo partly drawn) [Ala-d4T-MP, alaninyl-d4T-monophosphate]
estimated bioavailability ([1]; metabolite = label, after oral administration of compound 113): approximately 12% | AUC [1, 11]: 1350.5 µM·min | Cmax [1, 11]: 12.7 µM | Tmax [1, 11]: 10.3 min | t1/2 [1, 11]: 66.4 min | AUC ([1]; mean ± S.E.M): (1355.4 ± 88.2) μM · min | Cmax ([1]; mean ± S.E.M): 15.6 µM | Tmax ([1]; mean ± S.E.M): (9.3 ± 0.9) min | t1/2 ([1]; mean ± S.E.M): (56.1 ± 8.5) min | stability in intestinal fluid (in words) [2]: stable | stability in plasma (in words) (Stability in plasma): stable | stability in whole blood (in words) (Stability in whole blood): stable | share of CLm1 in the total systemic clearance ([3]; after i.v. Ala-d4T-MP): 99% | CLm1 (metabolic clearance of Ala-d4T-MP / formation clearance of d4T) [3, 12]: 15.6 ml/min/kg and 15.6 (16.6%) ml/min/kg | CLpd (distribution of Ala-d4T-MP to extravascular compartment) [3, 12]: 4.7 ml/min/kg and 4.7 (44.7%) ml/min/kg | CLm3 (metabolic clearance of Ala-d4T-MP / formation clearance of d4T) [3, 13]: 36.1 mL/min/kg | CLm1d (distribution of Ala-d4T-MP to the extravascular compartment) [3, 13]: 47.1 ml/min/kg and 62.0 (69.8%) ml/min/kg | fraction of parent converted to the metabolite (fm) ([3]; metabolite = label, after i.v. compound 113): 23% | AUC [3, 14]: 11648.7 µM·min | CL [3, 14]: 15.8 mL/min/kg | Cmax [3, 14]: 1210 µM | Vss [3, 14]: 0.2755 L/kg | t1/2 [3, 14]: 28.5 min | AUC [3, 15]: (11761.5 ± 447.2) μM · min | CL [3, 15]: (15.7 ± 0.6) ml/min/kg | Cmax [3, 15]: 1660 µM | Vss [3, 15]: (412.6 ± 126.3) ml/kg | t1/2 [3, 15]: (91.5 ± 54.5) min | AUC [3, 16]: 2854.8 µM·min | Cmax [3, 16]: 67.4 µM | Tmax [3, 16]: 5.9 min | t1/2 [3, 16]: 129.2 min | AUC [3, 17]: (2795.9 ± 361.2) μM · min | Cmax [3, 17]: 69.3 µM | Tmax [3, 17]: (5.1 ± 0.7) min | t1/2 [3, 17]: (138.8 ± 40.2) min

COC(=O)C(C)NP(=O)(OCC1C=CC(n2cc(C)c(=O)[nH]c2=O)O1)Oc1ccc(Cl)cc1 (stereo not drawn) [Compound 609, 5′-[4-Chlorophenylmethoxyalaninyl phosphate]-2′, 3′-didehydro-3′-deoxy thymidine]
IC50 ([4]; Adenovirus Type 5, 7 days, ± s.e., read-out: IC50, ADV-induced plaque formation): 0.0267 µM and 0.027 µM | IC50 ([4]; read-out: IC50, ADV-induced plaque formation, Adenovirus Type 5, 7 days, ± s.e.): 0.0027 ± 0.003 µM | IC50 [5]: > 100 µM | logP at 4 h [6]: 0.64 | cytotoxicity (in words) (skin fibroblasts): without cytotoxicity | Solubility (Solubility): 1400 µg/mL | IC50 [7]: > 100 µM | Hydrolysis Rate [8]: 0.0216 min⁻¹ | IC50 (HIV-1 strain HTLV-IIIB): 0.001 µM | IC50 (HSV Type II strain G): > 100 µM | IC50 [9]: > 100 µM | IC50 [10]: > 100 µM
